Results on three compounds are retold here after US20260325608A1, “PEPTIDES FOR USE IN THE TREATMENT OF SARCOMA” (PHARIS BIOTEC GMBH, priority 2023, published 2026).

The subject of one data set is osteosarcoma. The data set can be described thus: Compassionate use treatment of an osteosarcoma patient with intranasal peptide (Example 5). It is filed as in vivo. The settings on record: three times a day. The procedure:
A patient suffering from osteosarcoma was treated under the terms of compassionate use.
The peptide IVRYTKKVPQVS (SEQ ID NO: 21) was provided in a citrate/bicarbonate buffer (Pharmacopoeia Europaea, Ph. Eur.), in a concentration of 1 mg/mL (1 mg of the peptide in 1 mL of the buffer). This composition was administered intranasally as a nasal spray. The nasal spray was administered three times a day (morning, noon, evening), two strokes into each nasal cavity, for six weeks.
The course of the disease/clinical picture of the patient was monitored via an immune panel measurement, once a week. In blood count measurements, the numbers of erythrocytes, thrombocytes, etc. were determined.

Data set [1] is described as follows: Isoelectric point of the peptide. It counts as physicochemical.
The test system of a further data set is childhood sarcomas. The conditions noted are these: in vivo; cited from earlier work.

No end group written: not given here.

IVRYTKKVPQVS [SEQ ID NO: 21]: in the data set with osteosarcoma (1 mg/mL nasal spray, six weeks), the side effects entry was “no side effects were observed”. Besides, in the data set with osteosarcoma (1 mg/mL nasal spray, six weeks, especially in the area of the spine and the vertebral holes), the “regression of the tumor (MRT measurements)” value is given as “regression of the tumor”. Further, in the data set with osteosarcoma (after four weeks of treatment, 1 mg/mL nasal spray in citrate/bicarbonate buffer, two strokes into each nasal cavity), the blood picture result is “normalized”. The pain result with osteosarcoma (after six weeks of treatment, 1 mg/mL nasal spray, severe pain before start) is reported as “pain-free”. The “mobility of the patient” value in the data set with osteosarcoma (during six weeks of treatment, 1 mg/mL nasal spray, patient was unable to move before start) is listed as “restored”.
As to “LVRYTKKVPQVSTPTL [ALB408-423, LVRYTKKVPQVSTPTL]”, the “isoelectric point (pI)” value in data set [1] was 10.3.
In the case of `O=P1(N(CCCl)CCCl)NCCCO1` (stereo not shown) [cyclophosphamide], the anti-tumor efficacy entry with childhood sarcomas was “good anti-tumor efficacy”.
